In patent US12083082B2, “Methods for treating neurodegenerative disorders” (Alzheon, Inc., priority 2018, dated 2024):

Tests used:
in vivo = conditions: rat, po
Source text: ALZ-801 is a valine conjugate of tramiprosate that has been optimized for improved pharmacokinetic properties and gastrointestinal tolerability. Chronic toxicology studies required for the advancement of ALZ-801 to Phase 3 have been completed, including the nonclinical safety characterization of ALZ-801, and the safety bridge to the extensive nonclinical toxicology and safety data for tramiprosate. […] See Hey et al., Clinical Pharmacokinetics and Safety of ALZ-801, a Novel Prodrug of Tramiprosate in Development for the Treatment of Alzheimer's Disease. Clin Pharmacokinetics 2018; 315-333 and Kocis et al., Elucidating the Abeta42 Anti-Aggregation Mechanism of Action of Tramiprosate in Alzheimer's Disease: Integrating Molecular Analytical Methods. Pharmacokinetic and Clinical Data. CNS Drugs 2017; 31:495-509. […] Both ALZ-801 and tramiprosate have consistent elimination half-life in plasma across species following repeated oral doses of ALZ-801, indicating no potential for accumulation after chronic dosing. Following conversion of ALZ-801 to tramiprosate, tramiprosate is consistently metabolized in vivo into a single major metabolite, 3-sulfopropanoic acid (3-SPA), in humans, mice, rats, dogs and minipigs.

[1] = molecular target: T1, recombinant human Aβ42 peptide (Homo sapiens, UniProt P05067); experiment: Ion mobility mass spectrometry (IMS MS) anti-Aβ42 oligomer activity / binding study; assay type: biochemical; set-up: key to Presence of Aβ42 Pentamer / Presence of Aβ42 Hexamer / Presence of Aβ42 Decamer / Presence of Aβ42 Dimer / Presence of Aβ42 Trimer / Presence of Aβ42 Tetramer: Y = yes, presence of oligomer species; N = no presence of oligomer species
T1 construct: recombinant human Aβ42 peptide; purchased BioLegend 843801
Procedure: The conditions used for mass spectrometry, using a Waters Synapt G2-S, were as follows: positive polarity in sensitivity mode, capillary=2.5 kV, nebulizer=2 mbar, source temperature=80° C., desolvation temperature=60° C., sample cone setting=35 V, source offset setting=60 V, and mass range=500 to 4000 m/z. These conditions were maintained throughout the study to ensure consistency of the data and to avoid influencing the detection of oligomers due to preferential ionization conditions.
Samples were directly infused into the mass spectrometer at a flow rate of 10 μL/min using a Protea PM-1000 Syringe Pump and Hamilton 1 mL Syringe. The data acquisition of the amyloid peptide was performed using a Waters Synapt G2-S quadrupole time of flight mass spectrometer (Q-TOF MS) with traveling wave ion mobility (Waters Corp., Milford, MA). The data were acquired using the systems sensitivity mode to allow for the detection of the less abundant oligomers. Samples were infused at room temperature. The IMS MS studies were conducted at Protea, Inc. (Morgantown, WV).
1 mg of recombinant human Aβ42 peptide from BioLegend (99% purity, cat #843801) was reconstituted in 200 μL of Fisher Optima LC/MS grade water (cat #W6-1) and vortexed vigorously for 2 minutes to solubilize the peptide creating a 5 mg/mL solution. Samples were then diluted to a final concentration of 22 pmol/μL prior to incubation. The sample mixtures were then incubated at room temperature for 0, 4 and 24 hours. After the acquisition of incubated samples was completed, the raw data were analyzed using the Waters MassLynx v2.4 suite with DriftScover v2.7 to visualize drift times for the peptide.
Aβ42 species characterization using IMS MS was performed by direct infusion at 22 pmol/μL in water. The peptide was prepared in water to maintain the native state conformation of the peptide and ion mobility data acquisition was performed to detect and characterize the conformational changes of the native state monomer and any oligomers that may have formed during the incubation.
The data acquisition for Aβ42 peptide was performed using a Waters Synapt G2-S quadrupole time of flight mass spectrometer (Q-TOF MS) with traveling wave ion mobility (Waters Corp., Milford, MA). The data were acquired using the systems sensitivity mode to allow for the detection of the less abundant oligomers. Samples were infused at room temperature as above.
1 mg of 3-SPA was reconstituted in 1 mL of Fisher Optima LC/MS grade water (cat #W6-1) and vortexed vigorously for 2 minutes until completely dissolved. The sample was then diluted to create […], and 22,000 pmol/μL solutions to perform a 100-fold, and 1,000-fold molar excess for the binding experiments with Aβ42 peptide.
1 mg of recombinant human Aβ42 peptide was reconstituted in 200 μL of Fisher Optima LC/MS grade water and vortexed vigorously to solubilize to a 5 mg/mL solution. Samples were then diluted to their final concentrations prior to incubation. The sample mixtures were incubated at room temperature for 0, 4 and 24 hours, followed by analysis as described above.
To address the high conformational flexibility of Aβ42 and to characterize its interaction with 3-SPA, we used ion mobility mass spectrometry (IMS), with a quadrupole time of flight mass spectrometer (Q-TOF MS) with traveling wave ion mobility. Resulting effect of modulation of Aβ conformational space is the prevention of oligomer formation. We have found not only concentration dependency but also time-dependency of this anti-Aβ42 oligomeric effect of 3-SPA as indicated in FIG. 3 and FIG. 4. 100- vs 1,000-fold molar excess of 3-SPA over Aβ42 results in a different sub-species profile of inhibition of Aβ42 oligomer formation. The activity is also compared with the same excess dependency of tramiprosate.

[2] = cited from earlier work
[3] = 100:1 excess ratio compound:protein
[4] = 1000:1 excess ratio compound:protein

T1 sequence (P05067 672-713 limits assumed): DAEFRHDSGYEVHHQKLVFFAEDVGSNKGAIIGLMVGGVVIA

Presence of Aβ42 Decamer [1, 3]	Presence of Aβ42 Dimer [1, 3]	Presence of Aβ42 Hexamer [1, 3]	Presence of Aβ42 Pentamer [1, 3]	Presence of Aβ42 Tetramer [1, 3]	Presence of Aβ42 Trimer [1, 3]	Presence of Aβ42 Decamer [1, 4]	Presence of Aβ42 Dimer [1, 4]	Presence of Aβ42 Hexamer [1, 4]	Presence of Aβ42 Pentamer [1, 4]	Presence of Aβ42 Tetramer [1, 4]	Presence of Aβ42 Trimer [1, 4]	Compound	NOAEL at 1 month (in vivo)	NOAEL at 6 month (in vivo)	Tolerability (in words) (in vivo)	Inhibition of formation of Aβ42 oligomers (in words) ([1]; 24 hours incubation, 1,000-fold excess)	Safety profile (in words) ([2]; Phase 3 trials and safety extension, exposures of up to 2.5 years)	Effect on cognition (in words) ([2]; subgroup analysis of subjects with the ε4 allele of APOE (APOE4))
–	–	–	–	–	–	–	–	–	–	–	–	CC(C)[C@H](N)C(=O)NCCCS(=O)(=O)O [ALZ-801]	2000 mg/kg	1500 mg/kg	well tolerated	–	–	–
N	N	Y	Y	Y	Y	N	N	N	N	N	N	NCCCS(=O)(=O)O [Tramiprosate, 3-amino-1-propanesulfonic acid, reference compound]	–	–	–	complete inhibition of formation of Aβ42 oligomers	favorable safety profile	positive and clinically meaningful benefit on cognition
